Assay results published in US6818643B1, “Neurotrophic bicyclic diamides” (Bristol-Myers Squibb Company, priority 1999, dated 2004).

How the values were obtained:
[1] = biological target: T1, FKBP12 (Homo sapiens, UniProt P62942); assay: FKBP12 Rotamase Inhibition Assay; type: biochemical
Experimental: FKBP12 Rotamase Inhibition Assay
The rotamase activity of FKBP-12 was measured by an adaptation of the assay described by Kofron et al. (Biochemistry, 30, pp. 6127-6134 (1991)). The assay was carried out at 4° C. with 1 mg chymotrypsin/mL of assay with succinyl-Ala-Leu-Pro-Phe-p-nitroanilide as the substrate. Chymotrypsin rapidly hydrolyzes the peptide bond on the C-terminal side of the Phe of the trans form of the peptide and releases the chromogenic p-nitroaniline. The rate of the reaction is controlled by the rate of conversion of the cis form of the peptide to the trans-form, the reaction catalyzed by FKBP12. The apparent Ki values for inhibition of the rotamase activity were determined by measuring decreases in the first order rate constant of the reaction catalyzed by FKBP12 as a function of the concentrations of the compounds described herein. Ki is the concentration of the compound that causes 50 percent inhibition of rotamase activity which is indicative of neurite outgrowth activity.

[2] = biological target: T1, FKBP12; assay: Fluorescence Polarization (FP) Assay of FKBP12 Binding; settings: for Ki: rotamase Ki derived from FP assay; for inhibition at 1 µM: read-out: % FP inhibition at 1 μM
Experimental: Fluorescence Polarization (FP) Assay of FKBP12 Binding
The buffer (25 mM HEPES, 100 mM sodium chloride, pH 7.5) with pre-mixed enzyme and fluorescent ligand is distributed into wells (190 μL/well). Inhibitors are added as 10 μL of a 10% dimethylsulfoxide solution in the same buffer. FP is measured with an excitation wavelength of 485 nm and emission wavelength of 520 nm.

[3] = Table 1, 1 μM compound, 100 nM fluorescent ligand, 200 nM FKBP12
[4] = Table 2, 1 μM compound, 100 nM fluorescent ligand, 200 nM FKBP12

T1 sequence (P62942 whole entry, species assumed): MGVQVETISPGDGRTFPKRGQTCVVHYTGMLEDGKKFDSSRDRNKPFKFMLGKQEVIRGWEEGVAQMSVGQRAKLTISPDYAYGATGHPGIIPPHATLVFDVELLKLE

Compound | Ki ([2]; Table 1) [nM] | inhibition at 1 µM [2, 3] [%] | also measured
CCC(C)(C)C(=O)C(=O)N1CCCC[C@H]1C(=O)OC(CCCc1ccccc1)CCNC(=S)Nc1ccc(-c2c3ccc(=O)cc-3oc3cc(O)ccc23)c(C(=O)O)c1 (stereo partly drawn) [fluorescent FKBP12 ligand, 1-Phenyl-6-(fluoresceinylaminothiocarbamoyl)-4-hexyl-(S)-N-(t-pentylglyoxyl)pipecolate, reference compound] |  |  | Ki ([1]; read-out: Ki measured by the prolyl isomerase assay): 32 nM
COc1ccc(CCCC(CCCc2ccc(OC)c(OC)c2)CN2C[C@H]3CC[C@@H](C2=O)N3C(=O)C(=O)c2cc(OC)c(OC)c(OC)c2)cc1OC [Example 12, (1S,5R)-8-(3,4,5-Trimethoxyphenyl)oxalyl-3,8-diaza-3-[5-(3,4-dimethoxyphenyl)-2-(3-(3,4-dimethoxyphenyl)propyl)pentyl]bicyclo[3.2.1]octan-2-one] |  |  | Ki ([2]; Table 2): 47 nM
COc1ccc(CCCN2CC3CCCC(C2=O)N3C(=O)C(F)(F)c2cc(OC)c(OC)c(OC)c2)cc1OC (stereo not drawn) [Example 35, 9-(3,4,5-Trimethoxyphenyl)difluoroacetyl-3,9-diaza-3-[3-(3,4-dimethoxyphenyl)propyl]bicyclo[3.3.1]nonan-2-one] | 360 |  | inhibition at 1 µM [2]: 47%
COc1cc(C(=O)C(=O)N2C3CCC2C(=O)N(C(CCc2ccccc2)CCc2ccccc2)C3)cc(OC)c1OC [Example 5, (1S,5R)-8-(3,4,5-Trimethoxyphenyl)oxalyl-3,8-diaza-3-[3-phenyl-1-(2-phenylethyl)propyl]bicyclo[3.2.1]octan-2-one] |  |  | inhibition at 1 µM ([1]; Table 2, 1 μM compound): 49%
COc1ccc(CCCN2C[C@H]3CC[C@@H](C2=O)N3C(=O)C(=O)c2cc(OC)c(OC)c(OC)c2)cc1OC [Example 3, (1S,5R)-8-(3,4,5-Trimethoxyphenyl)oxalyl-3,8-diaza-3-[3-(3,4-dimethoxyphenyl)propyl]bicyclo[3.2.1]octan-2-one] | 380 | 26 | 
COc1cc(C(=O)C(=O)N2C3CCC2C(=O)N(CCCO)C3)cc(OC)c1OC [Example 42, (1S,5R)-8-(3,4,5-trimethoxyphenyl)oxalyl-3,8-diaza-3-(3-hydroxypropyl)bicyclo[3.2.1]octan-2-one] |  | 19 | 
COc1ccc(CCCC(CCCc2ccccc2)N2CC3CCCC(C2=O)N3C(=O)C(=O)c2cc(OC)c(OC)c(OC)c2)cc1OC (stereo not drawn) [Example 21, 9-(3,4,5-Trimethoxyphenyl)oxalyl-3,9-diaza-3-[4-(3,4-dimethoxyphenyl)-1-(3-phenylpropyl)butyl]bicyclo[3.3.1]nonan-2-one] |  |  | inhibition at 1 µM [2, 4]: 1%
COc1cc(C(=O)C(=O)N2C3CCC2C(=O)N(CCCCc2ccccc2)C3)cc(OC)c1OC [Example 7, (1S,5R)-8-(3,4,5-Trimethoxyphenyl)oxalyl-3,8-diaza-3-(4-phenylbutyl)bicyclo[3.2.1]octan-2-one] |  | 6 | 
COc1ccc(CCC(CCc2ccccc2)CN2CC3CCCC(C2=O)N3C(=O)C(=O)c2cc(OC)c(OC)c(OC)c2)cc1OC (stereo not drawn) [Example 26, 9-(3,4,5-Trimethoxyphenyl)oxalyl-3,9-diaza-3-[4-(3,4-dimethoxyphenyl)-2-(2-phenylethyl)butyl]-bicyclo[3.3.1]nonan-2-one] |  |  | Ki ([2]; Table 2): 51 nM
COc1ccc(CCCN2CC3CCCC(C2=O)N3C(=O)C(=O)c2cc(OC)c(OC)c(OC)c2)cc1OC (stereo not drawn) [Example 16, 9-(3,4,5-Trimethoxyphenyl)oxalyl-3,9-diaza-3-[3-(3,4-dimethoxyphenyl)propyl]bicyclo[3.3.1]nonan-2-one] | 150 | 76 | 
COc1cc(C(F)(F)C(=O)N2C3CCC2C(=O)N(CC(CCCc2ccccc2)CCCc2ccccc2)C3)cc(OC)c1OC [Example 33, (1S,5R)-8-(3,4,5-Trimethoxyphenyl)difluoroacetyl-3,8-diaza-3-[5-phenyl-2-(3-phenyl-propyl)pentyl]bicyclo[3.2.1]-octan-2-one] |  |  | inhibition at 1 µM [2, 4]: 7%
COc1cc(CCCN2C[C@H]3CC[C@@H](C2=O)N3C(=O)C(F)(F)c2cc(OC)c(OC)c(OC)c2)cc(OC)c1OC [Example 31, (1S,5R)-8-(3,4,5-Trimethoxyphenyl)difluoroacetyl-3,8-diaza-3-[3-(3,4,5-trimethoxyphenyl)propyl]bicyclo[3.2.1]octan-2-one] | 598 |  | inhibition at 1 µM [2]: 19%
COc1ccc(CCCCN2CC3CCCC(C2=O)N3C(=O)C(=O)c2cc(OC)c(OC)c(OC)c2)cc1OC (stereo not drawn) [Example 17, 9-(3,4,5-Trimethoxyphenyl)oxalyl-3,9-diaza-3-[4-(3,4-dimethoxyphenyl)butyl]bicyclo[3.3.1]-nonan-2-one] | 140 | 79 | 
